Source: patent US8188073B2, “Benzoxazines and related nitrogen-containing heterobicyclic compounds useful as mineralocorticoid receptor modulating agents” (Mitsubishi Tanabe Pharma Corporation, priority 2006, dated 2012)

Molecular target: T1, androgen receptors (AR) (Rattus norvegicus, UniProt P15207)
T1 construct: androgen receptors (AR) derived form rat prostate; from tissue; host or cells: rat prostate
T1 sequence (P15207 1-902): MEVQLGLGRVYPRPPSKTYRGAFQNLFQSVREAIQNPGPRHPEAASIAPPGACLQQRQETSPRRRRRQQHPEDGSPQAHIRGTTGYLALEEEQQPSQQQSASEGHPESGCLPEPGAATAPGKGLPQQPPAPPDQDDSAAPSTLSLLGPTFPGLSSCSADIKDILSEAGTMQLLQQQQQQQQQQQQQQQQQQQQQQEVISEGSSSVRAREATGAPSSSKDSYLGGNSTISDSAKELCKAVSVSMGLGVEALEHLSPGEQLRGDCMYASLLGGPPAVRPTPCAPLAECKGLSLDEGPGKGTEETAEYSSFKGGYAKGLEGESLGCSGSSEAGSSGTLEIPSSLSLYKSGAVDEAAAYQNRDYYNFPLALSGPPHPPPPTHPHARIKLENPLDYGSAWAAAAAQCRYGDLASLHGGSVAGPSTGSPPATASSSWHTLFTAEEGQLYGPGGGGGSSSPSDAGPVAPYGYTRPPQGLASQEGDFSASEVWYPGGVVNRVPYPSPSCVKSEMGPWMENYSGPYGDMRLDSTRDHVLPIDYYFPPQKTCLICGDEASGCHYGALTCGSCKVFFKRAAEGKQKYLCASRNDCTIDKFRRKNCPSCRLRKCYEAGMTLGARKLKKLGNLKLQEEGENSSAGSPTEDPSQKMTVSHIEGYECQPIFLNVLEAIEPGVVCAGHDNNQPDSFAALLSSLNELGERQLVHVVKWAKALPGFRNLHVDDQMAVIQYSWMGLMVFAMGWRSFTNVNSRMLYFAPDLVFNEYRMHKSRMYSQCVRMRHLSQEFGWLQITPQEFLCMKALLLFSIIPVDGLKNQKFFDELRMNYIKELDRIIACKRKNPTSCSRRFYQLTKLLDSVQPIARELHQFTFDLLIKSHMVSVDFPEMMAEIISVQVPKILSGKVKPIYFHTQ
Experiment: binding assay using androgen receptors derived from rat prostate and 3H-methyltrienorone
Details: AR derived from rat prostate
Experimental: (§1) Each biding assay was conducted in a similar manner as the procedure described in The Journal of Pharmacology and Experimental Therapeutics, 1987; 240:p. 650-656.

Row | SMILES | Ki
1 | CC1(C)Oc2cc(N)ccc2N(c2ccc(F)c(F)c2)C1=O [7-amino-4-(3,4-difluorophenyl)-2,2-dimethyl-2H-1,4-benzoxizin-3(4H)-one] | < 10000 nM

Molecular target: T2, mineralocorticoid receptors (MR) (Rattus norvegicus, UniProt P22199)
T2 construct: mineralocorticoid receptors (MR) derived form rat kidney; from tissue; host or cells: rat kidney
T2 sequence (P22199 1-981): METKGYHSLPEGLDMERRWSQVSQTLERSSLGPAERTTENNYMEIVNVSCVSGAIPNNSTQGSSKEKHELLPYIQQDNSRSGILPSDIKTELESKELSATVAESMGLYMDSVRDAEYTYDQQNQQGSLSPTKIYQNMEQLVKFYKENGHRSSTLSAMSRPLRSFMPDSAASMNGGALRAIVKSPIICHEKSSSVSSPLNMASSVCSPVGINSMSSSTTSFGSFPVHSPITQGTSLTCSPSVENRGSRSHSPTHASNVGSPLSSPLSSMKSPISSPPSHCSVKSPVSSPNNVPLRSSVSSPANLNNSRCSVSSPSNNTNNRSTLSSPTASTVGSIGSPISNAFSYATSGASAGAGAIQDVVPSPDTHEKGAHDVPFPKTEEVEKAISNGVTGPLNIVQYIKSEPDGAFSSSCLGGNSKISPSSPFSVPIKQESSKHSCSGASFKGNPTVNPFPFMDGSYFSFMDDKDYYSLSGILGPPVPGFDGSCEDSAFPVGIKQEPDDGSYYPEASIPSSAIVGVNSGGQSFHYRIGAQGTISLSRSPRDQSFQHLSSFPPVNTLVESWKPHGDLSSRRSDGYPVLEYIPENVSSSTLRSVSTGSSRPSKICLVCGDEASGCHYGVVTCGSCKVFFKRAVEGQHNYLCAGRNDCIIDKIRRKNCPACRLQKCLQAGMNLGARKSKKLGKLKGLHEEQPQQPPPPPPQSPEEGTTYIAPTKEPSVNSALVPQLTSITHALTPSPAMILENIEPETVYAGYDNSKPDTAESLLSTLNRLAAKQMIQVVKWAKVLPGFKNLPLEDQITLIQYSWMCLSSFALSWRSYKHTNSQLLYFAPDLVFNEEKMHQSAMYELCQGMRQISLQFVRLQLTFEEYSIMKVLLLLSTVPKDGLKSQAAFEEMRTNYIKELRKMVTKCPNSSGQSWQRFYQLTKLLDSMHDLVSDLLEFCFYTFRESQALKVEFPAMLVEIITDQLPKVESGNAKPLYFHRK
Experiment: binding assay using rat MR and 3H-aldosterone
Details: MR derived from rat kidney
Experimental: as §1
For example, in a binding assay using rat MR and ^3H-aldosterone, which was conducted in accordance with a manner as described in The Journal of Pharmacology and Experimental Therapeutics, 1987; 240: p. […] Therefore, the compound [I] of the present invention is useful as a medicament for prevention or treatment of various diseases associated with the receptor and/or aldosterone, such as cardiovascular diseases including hypertension and heart failure.

Row | SMILES | Ki
2 | CC1(C)Oc2cc([N+](=O)[O-])c(Cl)cc2N(c2ccc(F)cc2)C1=O [6-chloro-4-(4-fluorophenyl)-2,2-dimethyl-7-nitro-2H-1,4-benzoxizin-3(4H)-one] | < 10000 nM

Same assay, conditions: rat MR and 3H-aldosterone

Row | SMILES | IC50
3 | CS(=O)(=O)Nc1ccc2c(c1)OC(c1ccccc1)C(=O)N2c1ccccc1 (stereo not drawn) [N-(3-oxo-2,4-diphenyl-3,4-dihydro-2H-1,4-benzoxazin-7-yl)methane sulfonamide] | < 10000 nM
4 | CC1(C)Oc2cc(NS(C)(=O)=O)ccc2N(c2ccccc2)C1=O [N-(2,2-dimethyl-3-oxo-4-phenyl-3,4-dihydro-2H-1,4-benzoxazin-7-yl)methanesulfonamide] | < 10000 nM

Molecular target: T3, Aldosterone Receptor (Rattus norvegicus, UniProt P22199)
T3 construct: centrifuged at 100,000×g for 1 hour to give a supernatant as a kidney cytosol fraction; from tissue; host or cells: kidney cytosol of adrenalectomised Sprague-Dawley male rats
T3 sequence (P22199 1-981): T2 sequence (P22199 1-981)
Experiment: Aldosterone Receptor Binding Assay (Experiment 1; kidney cytosol fraction, [3H]aldosterone)
Parameters: species or system Sprague-Dawley male rats
Details: [3H]aldosterone ca. 2 nM, 4° C. overnight, Ki by Cheng and Prusoff's equation
Experimental: Experiment 1 [Aldosterone Receptor Binding Assay]
(1) Preparation of Kidney Cytosol Fraction:
Kidneys derived from post-adrenalectomy Sprague-Dawley male rats (7 weeks old) were homogenized in the following buffer solution and the homogenate was centrifuged at 100,000×g for 1 hour to give a supernatant as a kidney cytosol fraction (protein concentration: 15 mg/mL) for the present biding assay.
Composition of Buffer solution: 50 mM Tris-HCl (pH 7.5), 250 mM Sucrose, 50 mM Potassium chloride, 3 mM Magnesium chloride, 20 mM Sodium molybdate and 1 mM Mercaptoethanol
A mixture of 5 μL of a solution of each test compound in dimethylsulfoxide, 200 μL of kidney cytosol fraction, 50 μL of physiological saline (or 50 μL of unlabeled aldosterone solution (final concentration: 1 μM) and (50 μL of [^3H]aldosterone solution (ca. 2 nM) was incubated in a test tube at 4° C. overnight. Thereto was added 100 μL of dextrane-coated charcoal/10 mM Tris-HCl buffer and the mixture was incubated at 4° C. for 30 minutes. The reaction mixture was centrifuged at 3000 rpm for 10 minutes and to the supernatant (150 μL) was added 5 mL of a scintillator (Clearsol II, Nakarai Tesque). The radioactivity was measured by a liquid scintilation counter (TRI CARB 2200CA, Packard). […] Moreover, the dissociation constant (Ki) of each test compound was calculated on Cheng and Prusoff's equation (Ki=IC50/(1+[L]/Kd), wherein [L] is [^3H]aldosterone concentration and Kd is the affinity constant of aldosterone).

Row | SMILES | Ki
5 | CC1(C)Oc2cc(NS(C)(=O)=O)ccc2N(Cc2ccccc2)C1=O [Example 19] | < 500 nM
6 | CC1(C)Oc2cc(NS(C)(=O)=O)ccc2N(c2ccc(Cl)cc2)C1=O [Example 11] | < 500 nM
7 | COc1cc2c(cc1NS(C)(=O)=O)OC(C)(C)C(=O)N2c1ccc(F)cc1 [Example 101, N-[4-(4-Fluorophenyl)-6-methoxy-2,2-dimethyl-3-oxo-3,4-dihydro-2H-1,4-benzoxazin-7-yl]methanesulfonamide] | < 500 nM
8 | CC1(C)Oc2cc(NS(C)(=O)=O)ccc2N(c2ccc(F)cc2)C1=S [Example 46, N-[4-(4-fluorophenyl)-2,2-dimethyl-3-thioxo-3,4-dihydro-2H-1,4-benzoxazin-7-yl]methanesulfonamide] | < 500 nM
9 | CC1(C)Oc2cc(NS(C)(=O)=O)ccc2N(c2ccncc2)C1=O [Example 64] | < 500 nM
10 | Cc1cc(F)ccc1N1C(=O)C(C)(C)Oc2cc(NS(C)(=O)=O)ccc21 [Example 50] | < 500 nM
11 | CC1(C)Nc2cc(NS(C)(=O)=O)ccc2N(c2ccc(F)cc2)C1=O [Example 45, N-[1-(4-fluorophenyl)-3,3-dimethyl-2-oxo-1,2,3,4-tetrahydroquinoxalin-6-yl]methanesulfonamide] | < 500 nM
12 | CC1(C)Oc2cc(NS(C)(=O)=O)ccc2N(c2ccc(F)c(F)c2)C1=O [Example 10] | < 500 nM
13 | COc1cccc(N2C(=O)C(C)(C)Oc3cc(NS(C)(=O)=O)ccc32)c1 [Example 53] | < 500 nM
14 | CC1(C)Oc2cc(NS(C)(=O)=O)ccc2N(c2ccc(F)cc2)C1=O [Example 9, N-[4-(4-fluorophenyl)-2,2-dimethyl-3-oxo-3,4-dihydro-2H-1,4-benzoxazin-7-yl]methanesulfonamide] | < 500 nM
15 | CS(=O)(=O)Nc1ccc2c(c1)OC1(CCC1)C(=O)N2c1ccc(F)cc1 [Example 37] | 500 to 1000 nM
16 | CS(=O)(=O)Nc1ccc2c(c1)OC(c1ccccc1)C(=O)N2c1ccc(Cl)cc1 (stereo not drawn) [Example 6] | < 500 nM
17 | COc1cc(N2C(=O)C(C)(C)Oc3cc(NS(C)(=O)=O)ccc32)ccc1F [Example 55, N-[4-(4-Fluoro-3-methoxyphenyl)-2,2-dimethyl-3-oxo-3,4-dihydro-2H-1,4-benzoxazin-7-yl]methanesulfonamide] | < 500 nM
18 | CS(=O)(=O)Nc1ccc2c(c1)OCC(=O)N2c1ccc(F)c(Cl)c1 [Example 67] | 500 to 1000 nM

Molecular target: T4, glucocorticoid receptors (GR) (Rattus norvegicus, UniProt P06536)
T4 construct: glucocorticoid receptors (GR) derived form rat liver; from tissue; host or cells: rat liver
T4 sequence (P06536 1-795): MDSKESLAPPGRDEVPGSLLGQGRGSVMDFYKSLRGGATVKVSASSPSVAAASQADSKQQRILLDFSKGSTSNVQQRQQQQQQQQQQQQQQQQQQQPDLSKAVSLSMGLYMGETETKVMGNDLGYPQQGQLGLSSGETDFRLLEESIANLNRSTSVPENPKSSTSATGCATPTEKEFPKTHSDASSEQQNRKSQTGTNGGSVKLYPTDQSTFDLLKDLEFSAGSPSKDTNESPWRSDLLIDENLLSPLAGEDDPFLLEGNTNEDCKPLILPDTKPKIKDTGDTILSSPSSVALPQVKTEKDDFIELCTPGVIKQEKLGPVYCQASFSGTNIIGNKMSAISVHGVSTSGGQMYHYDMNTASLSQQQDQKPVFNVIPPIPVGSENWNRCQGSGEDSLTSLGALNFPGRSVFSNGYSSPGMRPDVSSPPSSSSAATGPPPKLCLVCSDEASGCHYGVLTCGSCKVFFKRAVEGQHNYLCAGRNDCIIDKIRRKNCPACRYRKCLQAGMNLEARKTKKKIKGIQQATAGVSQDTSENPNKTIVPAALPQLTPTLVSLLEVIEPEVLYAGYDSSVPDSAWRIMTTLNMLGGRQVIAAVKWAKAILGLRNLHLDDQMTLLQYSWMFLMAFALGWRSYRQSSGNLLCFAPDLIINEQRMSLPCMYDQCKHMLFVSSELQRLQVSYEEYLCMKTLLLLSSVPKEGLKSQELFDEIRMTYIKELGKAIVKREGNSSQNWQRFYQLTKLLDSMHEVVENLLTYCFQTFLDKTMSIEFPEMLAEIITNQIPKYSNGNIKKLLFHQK
Experiment: binding assay using glucocorticoid receptors derived from rat liver and 3H-dexamethazone
Details: GR derived from rat liver
Experimental: as §1

Row | SMILES | Ki
19 | Cc1cc(N2C(=O)C(C)(C)Oc3cc([N+](=O)[O-])ccc32)ccc1F [4-(4-fluoro-3-methylphenyl)-2,2-dimethyl-7-nitro-2H-1,4-benzoxizin-3 (4H)-one] | < 10000 nM
20 | O=C1C(c2ccccc2)Oc2cc([N+](=O)[O-])ccc2N1c1ccc(F)cc1 (stereo not drawn) [4-(4-fluorophenyl)-7-nitro-2-phenyl-2H-1,4-benzoxizin-3(4H)-one] | < 10000 nM
21 | Cc1ccc(N2C(=O)C(C)(C)Oc3cc([N+](=O)[O-])ccc32)cc1C(F)(F)F | < 10000 nM
